Experimental data from publication PMC7419507, “In vitro Cas9-assisted editing of modular polyketide synthase genes to produce desired natural product derivatives” (Nature Communications, 2020).
Values joined by “and” are separate entries in the source; they are usually repeats but may differ in a detail not shown here. Equal entries are not always repeated.

What was measured:
Type in all cases: cell-based
FKBP12 and mTOR = biological target: T1, FKBP12 and mTOR (Homo sapiens, UniProt P42345+P62942); test: Fluoppi analysis: induction of FKBP12-mTOR complex formation in transfected HeLa cells; settings: for Foci intensity: raw data, one replicate per line
T1 construct: host or cells: HeLa cells
T1 sequence (P42345 2025-2114 limits assumed): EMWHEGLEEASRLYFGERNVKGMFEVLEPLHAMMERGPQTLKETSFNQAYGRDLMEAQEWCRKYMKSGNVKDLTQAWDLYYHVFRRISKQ
T1 sequence (P62942 whole entry): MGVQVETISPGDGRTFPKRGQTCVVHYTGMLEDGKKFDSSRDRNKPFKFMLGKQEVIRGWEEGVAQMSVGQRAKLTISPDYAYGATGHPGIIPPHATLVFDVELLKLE
Procedure: Fluoppi harbours a tetrameric fluorescent protein hAG tag and an oligomeric assembly helper Ash tag to create detectable fluorescent foci in cells when there are interactions between two proteins fused to each tag[32].
HeLa cells were maintained in DMEM (Fujifilm Wako, Osaka, Japan) supplemented with 10% FBS (Thermo Fisher Scientific, MA, USA) and 1% of Penicillin-Streptomycin (Thermo Fisher Scientific) in a humidified incubator with 5% CO2 at 37 °C. Harvested cells were plated at 1 × 10^6 cells/well in 6-well plate and incubated for 6 h. Then each 1.25 µg of phAG-mTOR and pAsh-FKBP12 (Medical and Biological Laboratories Co., Ltd., Aichi, Japan) was co-transfected with Lipofectamine 2000 reagent (Thermo Fisher Scientific) overnight. Next day, transfected cells were harvested and seeded in 384-well optical-bottom microplate (PerkinElmer, MA, USA) at a density of 3000 cells/well. After the 24 h incubation at 37 °C, cells were treated with different concentrations of compounds for 1 h. Cells were then fixed with 4% paraformaldehyde and stained with 1 µg/ml of Hoechst33342 (Thermo Fisher Scientific). Cell images of 9 visual fields/well were acquired with ×20 objective lens in Opera Phenix High-Content Screening System (PerkinElmer) and analysed by Harmony4.9 software (PerkinElmer). Because protein-protein interactions are quantified by measuring the aggregation of fluorescent elements in foci, fluorescent intensity in foci was normalised by total fluorescent intensity in each cell. EC50 values were calculated using TIBCO Spotfire 10.3 software (PerkinElmer).

T lymphoma Jurkat cells = test: Cytotoxicity assay (CellTiter-Glo, 72 h), Jurkat; settings: raw data (replicates)
Procedure: (§1) Jurkat cells were cultured in RPMI1640 medium supplemented with 10% foetal bovine serum, penicillin (50 U/ml), streptomycin (50 μg/ml), and Glutamax. SKOV-3 cells were cultured in DMEM medium supplemented with 10% fetal bovine serum, penicillin (50 U/ml), and streptomycin (50 μg/ml). MESO-1 cells were cultured in RPMI1640 medium supplemented with 10% fetal bovine serum, penicillin (50 U/ml), and streptomycin (50 μg/ml). All cell lines were seeded in a 384-well plate at a density of 1000 cells/well in 20 μl of media and incubated at 37 °C in a humidified incubator with 5% CO2. After 4 h, 2-fold dilution samples resolved in DMSO were added to the cell culture at the concentration of 0.5% (0.1 μl) and incubated for 72 h. Cell viabilities were measured using a CellTiter-Glo luminescent cell viability assay and EnVision multilabel plate reader.

[1] = tested on: human ovarian adenocarcinoma SKOV-3 cells; test: Cytotoxicity assay (CellTiter-Glo, 72 h), SKOV-3; settings: raw replicate data
Procedure: as §1

[2] = tested on: malignant pleural mesothelioma MESO-1 cells; test: Cytotoxicity assay (CellTiter-Glo, 72 h), MESO-1; settings: raw replicate data
Procedure: as §1

[3] = tested on: Jurkat, SKOV-3 and MESO-1 cells; test: Cytotoxicity assay, statements for all tested cell lines together; settings: against the tested cell lines (Jurkat, SKOV-3, MESO-1)
Procedure: as §1

For `COC1CC2CCC(C)C(O)(O2)C(=O)C(=O)N2CCCCC2C(=O)OC(C(C)CC2CCC(O)C(OC)C2)CC=C(C)C(O)CC(=O)C(C)CC(C)C=CC=CC=C1C` (centres unmarked) [Compound 10], the “PPI-inducing (binding enhancing) activity between FKBP12 and mTOR compared with rapamycin (1), in words” value (FKBP12 and mTOR; Fluoppi) was “relatively weaker activities”, the EC50 (FKBP12 and mTOR; Fluoppi, HeLa cells, 1 h treatment, three independent biological replicates, read-out: EC50, induction of the formation of FKBP-mTOR complex) was 21 nM and the Foci intensity (FKBP12 and mTOR; conc 9.53674e-5 uM) was 0.02938 and 0.02062 and 0.01935. The Foci intensity (FKBP12 and mTOR; conc 0.000190735 uM) was 0.01089 and 0.04735 and 0.006372, the Foci intensity (FKBP12 and mTOR; conc 0.00038147 uM) was 0.02158 and 0.01349 and 0.009009 and the Foci intensity (FKBP12 and mTOR; conc 0.000762939 uM) was 0.009136 and 0.02959 and 0.01473. For the same compound, the Foci intensity (FKBP12 and mTOR; conc 0.00152588 uM) was 0.01663 and 0.006313 and 0.01798, the Foci intensity (FKBP12 and mTOR; conc 0.00305176 uM) was 0.01047 and 0.01326 and 0.01713 and the Foci intensity (FKBP12 and mTOR; conc 0.00610352 uM) was 0.03111 and 0.03528 and 0.05091. For the same compound, the Foci intensity (FKBP12 and mTOR; conc 0.012207 uM) was 0.1191 and 0.0902 and 0.07426, the Foci intensity (FKBP12 and mTOR; conc 0.0244141 uM) was 0.2308 and 0.2676 and 0.239 and the Foci intensity (FKBP12 and mTOR; conc 0.0488281 uM) was 0.3046 and 0.3291 and 0.3775. The Foci intensity (FKBP12 and mTOR; conc 0.0976562 uM) was 0.4136 and 0.3574 and 0.3612, the Foci intensity (FKBP12 and mTOR; conc 0.195312 uM) was 0.3726 and 0.4258 and 0.4147 and the Foci intensity (FKBP12 and mTOR; conc 0.390625 uM) was 0.4457 and 0.3806 and 0.4256. For the same compound, the Foci intensity (FKBP12 and mTOR; conc 0.78125 uM) was 0.3848 and 0.4238 and 0.4902, the Foci intensity (FKBP12 and mTOR; conc 1.5625 uM) was 0.4004 and 0.3924 and 0.3797 and the Foci intensity (FKBP12 and mTOR; conc 3.125 uM) was 0.374 and 0.3995 and 0.4137. The Foci intensity (FKBP12 and mTOR; conc 6.25 uM) was 0.4751 and 0.3772 and 0.3106, the Foci intensity (FKBP12 and mTOR; conc 12.5 uM) was 0.4864 and 0.3577 and 0.3572 and the Foci intensity (FKBP12 and mTOR; conc 25 uM) was 0.403 and 0.3428 and 0.3243. The Foci intensity (FKBP12 and mTOR; conc 50 uM) was 0.4648 and 0.4194 and 0.3824, the “Jurkat viability (%)” value (T lymphoma Jurkat cells; conc 9.53674e-5 uM) was 100.6% and 99.4% and 103.1% and the “Jurkat viability (%)” value (T lymphoma Jurkat cells; conc 0.000190735 uM) was 101.6% and 102.5% and 98.5%. For the same compound, the “Jurkat viability (%)” value (T lymphoma Jurkat cells; conc 0.00038147 uM) was 98.4% and 99.9%, the “Jurkat viability (%)” value (T lymphoma Jurkat cells; conc 0.000762939 uM) was 100.1% and 103.3% and 99.4% and the “Jurkat viability (%)” value (T lymphoma Jurkat cells; conc 0.00152588 uM) was 103.7% and 95.3% and 102.7%. The “Jurkat viability (%)” value (T lymphoma Jurkat cells; conc 0.00305176 uM) was 99.4% and 102.2% and 96.7%, the “Jurkat viability (%)” value (T lymphoma Jurkat cells; conc 0.00610352 uM) was 103.1% and 102.2% and 98.6% and the “Jurkat viability (%)” value (T lymphoma Jurkat cells; conc 0.012207 uM) was 106.4% and 103.4% and 103.7%. For the same compound, the “Jurkat viability (%)” value (T lymphoma Jurkat cells; conc 0.0244141 uM) was 106.5% and 107.7% and 103.0%, the “Jurkat viability (%)” value (T lymphoma Jurkat cells; conc 0.0488281 uM) was 101.8% and 99.9% and 103.2% and the “Jurkat viability (%)” value (T lymphoma Jurkat cells; conc 0.0976562 uM) was 106.2% and 107.8% and 101.3%. The “Jurkat viability (%)” value (T lymphoma Jurkat cells; conc 0.195312 uM) was 97.6% and 99.7% and 92.3%, the “Jurkat viability (%)” value (T lymphoma Jurkat cells; conc 0.390625 uM) was 92.6% and 88.6% and 95.1% and the “Jurkat viability (%)” value (T lymphoma Jurkat cells; conc 0.78125 uM) was 82.4% and 83.0% and 85.1%. The “Jurkat viability (%)” value (T lymphoma Jurkat cells; conc 1.5625 uM) was 79.7% and 82.1% and 77.6%, the “Jurkat viability (%)” value (T lymphoma Jurkat cells; conc 3.125 uM) was 74.2% and 71.9% and 69.9% and the “Jurkat viability (%)” value (T lymphoma Jurkat cells; conc 6.25 uM) was 76.5% and 74.7% and 74.5%. For the same compound, the “Jurkat viability (%)” value (T lymphoma Jurkat cells; conc 12.5 uM) was 63.4% and 64.1% and 59.5%, the “Jurkat viability (%)” value (T lymphoma Jurkat cells; conc 25 uM) was 29.8% and 32.1% and 29.9% and the “Jurkat viability (%)” value (T lymphoma Jurkat cells; conc 50 uM) was 2.7% and 3.5% and 3.4%. The “SKOV3 viability (%)” value ([1]; conc 9.53674e-5 uM) was 102.2% and 102.6% and 104.7%, the “SKOV3 viability (%)” value ([1]; conc 0.000190735 uM) was 89.9% and 100.2% and 100.4% and the “SKOV3 viability (%)” value ([1]; conc 0.00038147 uM) was 103.4% and 105.0% and 103.9%. The “SKOV3 viability (%)” value ([1]; conc 0.000762939 uM) was 100.5% and 98.4% and 99.4%, the “SKOV3 viability (%)” value ([1]; conc 0.00152588 uM) was 106.0% and 105.3% and the “SKOV3 viability (%)” value ([1]; conc 0.00305176 uM) was 103.5% and 101.1% and 97.3%. For the same compound, the “SKOV3 viability (%)” value ([1]; conc 0.00610352 uM) was 103.4% and 105.6% and 104.9%, the “SKOV3 viability (%)” value ([1]; conc 0.012207 uM) was 103.7% and 98.9% and 95.6% and the “SKOV3 viability (%)” value ([1]; conc 0.0244141 uM) was 104.7% and 103.8% and 99.6%. The “SKOV3 viability (%)” value ([1]; conc 0.0488281 uM) was 100.2% and 99.1% and 100.0%, the “SKOV3 viability (%)” value ([1]; conc 0.0976562 uM) was 104.8% and 104.3% and 100.1% and the “SKOV3 viability (%)” value ([1]; conc 0.195312 uM) was 95.4% and 97.0% and 94.0%. For the same compound, the “SKOV3 viability (%)” value ([1]; conc 0.390625 uM) was 97.7% and 103.0% and 102.9%, the “SKOV3 viability (%)” value ([1]; conc 0.78125 uM) was 93.0% and 94.9% and 92.8% and the “SKOV3 viability (%)” value ([1]; conc 1.5625 uM) was 96.7% and 99.9% and 92.6%. The “SKOV3 viability (%)” value ([1]; conc 3.125 uM) was 90.3% and 92.8% and 92.7%, the “SKOV3 viability (%)” value ([1]; conc 6.25 uM) was 95.7% and 97.5% and 89.4% and the “SKOV3 viability (%)” value ([1]; conc 12.5 uM) was 93.5% and 97.4% and 91.5%. For the same compound, the “SKOV3 viability (%)” value ([1]; conc 25 uM) was 91.8% and 89.5% and 94.8%, the “SKOV3 viability (%)” value ([1]; conc 50 uM) was 48.8% and 50.2% and 51.9% and the “MESO1 viability (%)” value ([2]; conc 9.53674e-5 uM) was 100.8% and 105.3% and 105.4%. The “MESO1 viability (%)” value ([2]; conc 0.000190735 uM) was 95.7% and 102.9% and 100.7%, the “MESO1 viability (%)” value ([2]; conc 0.00038147 uM) was 104.6% and 103.5% and 110.6% and the “MESO1 viability (%)” value ([2]; conc 0.000762939 uM) was 99.4% and 101.6% and 106.3%. For the same compound, the “MESO1 viability (%)” value ([2]; conc 0.00152588 uM) was 103.6% and 107.9% and 110.6%, the “MESO1 viability (%)” value ([2]; conc 0.00305176 uM) was 103.7% and 97.7% and 102.1% and the “MESO1 viability (%)” value ([2]; conc 0.00610352 uM) was 102.5% and 110.7% and 106.5%. For the same compound, the “MESO1 viability (%)” value ([2]; conc 0.012207 uM) was 100.1% and 112.2% and 102.4%, the “MESO1 viability (%)” value ([2]; conc 0.0244141 uM) was 100.1% and 101.2% and 104.6% and the “MESO1 viability (%)” value ([2]; conc 0.0488281 uM) was 99.1% and 97.8% and 101.7%. For the same compound, the “MESO1 viability (%)” value ([2]; conc 0.0976562 uM) was 102.3% and 104.8% and 99.5%, the “MESO1 viability (%)” value ([2]; conc 0.195312 uM) was 92.8% and 95.2% and 98.3% and the “MESO1 viability (%)” value ([2]; conc 0.390625 uM) was 100.3% and 99.6% and 94.3%. For the same compound, the “MESO1 viability (%)” value ([2]; conc 0.78125 uM) was 88.5% and 91.5% and 91.8%, the “MESO1 viability (%)” value ([2]; conc 1.5625 uM) was 91.5% and 95.3% and 90.6% and the “MESO1 viability (%)” value ([2]; conc 3.125 uM) was 85.5% and 90.0% and 83.9%. For the same compound, the “MESO1 viability (%)” value ([2]; conc 6.25 uM) was 92.1% and 98.3% and 96.6%, the “MESO1 viability (%)” value ([2]; conc 12.5 uM) was 90.4% and 90.6% and 90.0% and the “MESO1 viability (%)” value ([2]; conc 25 uM) was 77.8% and 73.6% and 73.2%. For the same compound, the “MESO1 viability (%)” value ([2]; conc 50 uM) was 53.8% and 51.9% and 42.0% and the “Concentration at which cytotoxic activities were shown” value [3] was “over 10 µM”.
